According to patent publication US6905836B2, “Methods for identifying compounds that inhibit ubiquitin-mediated proteolysis of iκb” (Yissum Research Development Company of the Hebrew …, priority 2000, dated 2005):
Residues, ends and D or L forms follow the SMILES beside them. *: point of attachment. Cbz = O=C(OCc1ccccc1)*

Key:
[1] = system: Vpu-mediated GFP-CD4 degradation; test: Vpu-mediated CD4 degradation assay (GFP-CD4, tet-off Vpu); assay type: cell-based, human; conditions: 293 cells, pretreatment of transfected cells, Western blotting (FIG. 7C)
Protocol: The inducible system consists of the tetracycline (Tc)-responsive promoter system developed by Gossen and Bujard (1992). Vpu and GFP-CD4 expression were performed in either HeLa Tet-off gene expression system (CLONTECH). These stably transfected HeLa cells carry the pTet-Off regulator plasmid encoding a tetracycline-controlled transactivator (tTA), which also includes a neomycin-resistance gene. Alternatively 293 cells were transfected with the inducible constructs and the pTet-Off plasmid (Lavon et al., 2000). […]
The ubiquitin-ligase activity is measured as a function of Vpu-mediated GFP-CD4 degradation (FIG. 7A). […] The N-terminal CD4 sequence, including the first three Ig-like domains (but preserving the CD4 signal sequence), was replaced with the human EGFP sequence for allowing the quantitative measurement of the fusion protein through the GFP fluorescence signal.
A GFP-CD4 expression plasmid was co-transfected into 293 cells together with expression plasmids for doxycycline (DOX)-regulated HIV-Vpu and tTA (tetracycline transactivator) plasmid. Vpu and GFP-CD4 expression were detected by Western blotting. […]

[2] = target: T1, E3RS-hnRNP-U complex (Homo sapiens, UniProt Q9Y297); test: Dissociation of E3RS from immobilized hnRNP-U by IκBα species; assay type: binding; conditions: anti-hnRNP-U immunobeads from Flag-E3RS transfected 293T cells; Western blot (FIG. 4D)
T1 construct: expressed in transfected cells; host or cells: 293T cells
T1 sequence (Q9Y297 1-605): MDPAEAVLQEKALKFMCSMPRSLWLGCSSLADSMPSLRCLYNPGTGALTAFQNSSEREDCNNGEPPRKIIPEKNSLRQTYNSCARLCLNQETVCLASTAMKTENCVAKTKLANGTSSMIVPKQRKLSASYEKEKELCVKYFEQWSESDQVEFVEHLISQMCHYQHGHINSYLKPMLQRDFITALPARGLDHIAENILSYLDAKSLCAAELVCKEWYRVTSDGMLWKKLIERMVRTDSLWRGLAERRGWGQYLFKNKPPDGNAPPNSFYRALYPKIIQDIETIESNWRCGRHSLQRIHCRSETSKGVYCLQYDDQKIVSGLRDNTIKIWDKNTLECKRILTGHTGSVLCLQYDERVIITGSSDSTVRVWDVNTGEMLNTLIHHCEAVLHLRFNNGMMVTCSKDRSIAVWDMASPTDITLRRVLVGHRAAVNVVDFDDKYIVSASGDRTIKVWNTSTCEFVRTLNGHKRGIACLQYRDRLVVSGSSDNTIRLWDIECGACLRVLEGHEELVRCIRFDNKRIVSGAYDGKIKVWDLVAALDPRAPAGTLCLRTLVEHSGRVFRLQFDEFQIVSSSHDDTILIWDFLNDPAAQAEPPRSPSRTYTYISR
Protocol: Flag-E3RS and endogenous hnRNP-U from 293T cells were used as an E3 source and Flag-WD was used as a negative control. 100 μg protein extract was immunoprecipitated using 2 μl anti-Flag beads or 0.21 μl anti-hnRNP-U antibodies. IκB was phosphorylated by the constitutively-active IκB kinase (IKK2; (Mercurio et al., 1997)) and subjected to binding and ubiquitination assays with each of the above E3 sources, as described previously by (Yaron et al., 1998).
Next, 293T cells transfected with Flag-E3RS were immunoprecipitated using anti-Flag (lanes 1,2) or anti-hnRNP-U (FIG. 4D, lanes 3-7) antibodies. IκBα (FIG. 4D, lanes 1,3,4) and IKK phosphorylated IκBα (pIκBα; FIG. 4D, lanes 2,5-7) were incubated with the immunobeads, after which, both the immunobeads (slurry (S); FIG. 4D, lanes 1-3,5) and the post-slurry fractions (PS; FIG. 4D, lanes 4,6) were analyzed by Western blot directly, or after immunoprecipitation of the post-slurry fraction (same as in FIG. 4D, lane 6) with anti-Flag beads (FIG. 4D, lane 7).

Molecule | GFP-CD4 signal upon Vpu expression [1] | dissociation of E3RS from immobilized hnRNP-U into the post-slurry fraction [2]
CC(C)C[C@@H](C=O)NC(=O)[C@H](CC(C)C)NC(=O)[C@H](CC(C)C)NC(=O)OCc1ccccc1 [MG132] (Cbz-Leu-Leu-Leu-aldehyde) | preservation of the GFP-CD4 signal | –
pIκBα: IKK phosphorylated IκBα protein (protein) MFQAAERPQEWAMEGPRDGLKKERLLDDRHDSGLDSMKDEEYEQMVKELQEIRLEPQEVPRGSEPWKQQLTEDGDSFLHLAIIHEEKALTMEVIRQVKGDLAFLNFQNNLQQTPLHLAVITNQPEIAEALLGAGCDPELRDFRGNTPLHLACEQGCLASVGVLTQSCTTPHLHSILKATNYNGHTCLHLASIHGYLGIVELLVSLGADVNAQEPCNGRTALHLAVDLQNPDLVSLLLKCGADVNRVTYQGYSPYQLTWGRPSTRIQQQLGQLTLENLQMLPESEDEESYDTESEFTEFTEDELPYDDCVFGGQRLTL | – | induced the dissociation of the E3RS from the immobilized hnRNP-U
